Laboratory results as given in patent US7091038B2, “Ecdysone receptor-based inducible gene expression system” (RheoGene, Inc., priority 2000, dated 2006).

Tests used:
GAL4EcR + VP16RXR = test: Transactivation of reporter gene through switch 1.1 in 3T3 cells; conditions: GAL4CfEcRDEF/VP16MmRXRDEF (switch 1.1), 1.0 μM ligand, 48 hr
Description: (§1) In various cellular backgrounds, including mammalian cells, insect ecdysone receptor (EcR) heterodimerizes with retinoid X receptor (RXR) and, upon binding of ligand, transactivates genes under the control of ecdysone response elements. […] The prepared receptor constructs comprise a ligand binding domain of EcR and of RXR or of USP; a DNA binding domain of GAL4 or of EcR; and an activation domain of VP16. The reporter constructs include a reporter gene, luciferase or LacZ, operably linked to a synthetic promoter construct that comprises either GAL4 or EcR/USP binding sites (response elements). Various combinations of these receptor and reporter constructs were cotransfected into CHO, NIH3T3, CV1 and 293 cells.
The same procedures described for CHO cells were followed for 3T3 cells as well with two modifications. The cells were plated when they reached 50% confluency. 125,000 or 50,000 or 25,000 cells were plated per well of 6- or 12- or 24-well plates respectively.

GAL4RXR + VP16CfEcR = test: Transactivation of reporter gene through switch 1.3 in 3T3 cells; conditions: GAL4MmRXRDEF/VP16CfEcRCDEF (switch 1.3), 1.0 μM ligand
Description: as §1
The same procedures described for CHO cells were followed for 3T3 cells as well with two modifications. The cells were plated when they reached 50% confluency. 125,000 or 50,000 or 25,000 cells were plated per well of 6- or 12- or 24-well plates respectively. […] The ligand treatments were performed as described in the CHO cell section above.

CfEcR = test: Transactivation through CfEcR- versus DmEcR-based switches in mammalian cell lines (Tables 1–4); parameters: species or system Choristoneura fumiferana
Experimental: Cells were harvested 24–48 hr after adding ligands. […] Twenty μl of lysate was assayed.

[1] = system: EcR/RXR receptor combinations; test: Truncated CfEcR and MmRXR receptor combinations, luciferase reporter in NIH3T3 cells; type: cell-based, Choristoneura fumiferana; Mus musculus; conditions: 0, 1, 5 or 25 uM ligand for 48 hr, FIGS. 11–14
Experimental: Briefly, polynucleotides encoding EcR or RXR receptors were truncated at the junctions of A/B, C, D, E and F domains and fused to either a GAL4 DNA binding domain encoding polynucleotide (SEQ ID NO: 43) for CfEcR, or a VP16 activation domain encoding polynucleotide (SEQ ID NO: 49) for MmRXR as described in Example 1. The resulting receptor truncation/fusion polypeptides were assayed in NIH3T3 cells. Plasmid pFRLUC (Stratagene) encoding a luciferase polypeptide was used as a reporter gene construct and pTKRL (Promega) encoding a Renilla luciferase polypeptide under the control of the constitutive TK promoter was used to normalize the transfections as described above. The analysis was performed in triplicates and mean luciferase counts were determined as described above. […]

CfEcRDEF:MmRXRDEF = test: CfEcR-based yeast two-hybrid assay, LacZ reporter pSH118; type: cell-based, Choristoneura fumiferana; Mus musculus; conditions: yeast strain comprising CfEcRDEF:MmRXRDEF; 0–100 μM ligand for four hours; FIGS. 18 and 19
Description: This construct results in a LexA:CfEcRDEF fusion that is expressed under the GAL1 promoter.
The D, E, and F domains from mouse (Mus musculus) RXR α (“MmRXRDEF”; SEQ ID NO: 22) were fused to a B42 transactivation domain (“B42AD”; SEQ ID NO: 53) and placed under the control of a GAL1 promoter (SEQ ID NO: 73) in pB42AD (CLONTECH). This construct results in a B42AD:MmRXR-DEF fusion that is expressed under the GAL 1 promoter.
A reporter plasmid comprising a β-galactosidase gene (LacZ; SEQ ID NO: 74) under the control of an 8XLexA operon response element (“8XlexAop”; SEQ ID NO: 75) operably linked to a minimal TATAA region from the GAL1 promoter (p8op-lacZ from CLONTECH) was used to monitor inducible gene expression.
Saccharomyces cerevisiae yeast cells (EGY48; CLONTECH) were used in these experiments. Cells were maintained in liquid culture media with the appropriate drop out amino acids. Standard methods for culture and maintenance of the cells were followed. […]
DNA constructs pSH118, CfEcRDEF, and MmRXRA/BCDEF, MmRXRDEF, or […] were transfected into yeast cells. […] A colony from each group of transformants was grown in the liquid culture in the presence of 0, 0.04, 0.2, 1, 5 and 25 μM GS™-E. The reporter activity was measured as described above 4 hours after adding ligand. Total RLUs were calculated and the numbers on the bars of FIG. 16 show maximum fold induction observed for that group (see FIGS. 16 and 17).
The best performing transformed yeast strain from the analysis above comprising CfEcRDEF:MmRXRDEF was used to determine the induction activity of three steroid ligands (20E, PonA, MurA) and four non-steroid ligands (GS™-E, RH2485, RH5992, RH5849) in this yeast-based format. The yeast cells were cultured in the presence of 0, 0.l, 1, 10, 50 and 100 μM ligands for four hours and the reporter activity was measured as described above. Total RLUs were calculated and the numbers on the top of the bars of FIG. 18 show the maximum fold induction for that group (see FIGS. 18 and 19).

Compound: CC(C)CC[C@@H](O)[C@](C)(O)[C@H]1CC[C@@]2(O)C3=CC(=O)[C@]4(O)C[C@@H](O)[C@@H](O)C[C@]4(C)[C@H]3[C@H](O)C[C@]12C [Muristerone A, reference compound]
- Mean Fold Induction at 1.0 μM Concentration (GAL4EcR + VP16RXR): 1.0 fold
- Mean Fold Induction at 1.0 μM Concentration (GAL4RXR + VP16CfEcR): 1.0 fold

Compound: Cc1cc(C)cc(C(=O)N(NC(=O)c2ccc3c(c2C)OCCO3)C(C)(C)C)c1 [N-(3,4-(1,2-ethylenedioxy)-2-methylbenzoyl)-N′-(3,5-dimethylbenzoyl)-N′-tert-butylhydrazine]
- Potency as activator of CfEcR compared to DmEcR (CfEcR): more potent activators of CfEcR as compared to Drosophila melanogaster EcR (DmEcR)
- Mean Fold Induction at 1.0 μM Concentration (GAL4RXR + VP16CfEcR): 54 fold

Compound: CC(C)CC[C@@H](O)[C@](C)(O)[C@H]1CC[C@@]2(O)C3=CC(=O)[C@@H]4C[C@@H](O)[C@@H](O)C[C@]4(C)[C@H]3CC[C@]12C [Ponasterone A, reference compound]
- Sensitivity of the EcR/RXR switch to the ligand [1]: insensitive
- Mean Fold Induction at 1.0 μM Concentration (GAL4EcR + VP16RXR): 1.0 fold
- Mean Fold Induction at 1.0 μM Concentration (GAL4RXR + VP16CfEcR): 1.0 fold

Compound: CC(C)(C)N(NC(=O)c1ccccc1)C(=O)c1ccccc1 [RH5849, N-tert-butyl-N,N′-dibenzoylhydrazine]
- Induction of gene expression (relative performance of ligands) (CfEcRDEF:MmRXRDEF): did not show a significant response
